Read-outs that look alike come from different tables or passages of the source.
Key:
Experiment in all cases: cells
SW480 = assay type: cell-based; conditions: read-out: Basal_Viability ATP SW480
[1] = tested on: nuclear β-catenin in C2C12 cells; assay type: cell-based
HeLa cells = assay type: cell-based
HT-29 = assay type: cell-based; conditions: Homo sapiens, HT-29
NCI-H716 cells = assay type: cell-based, Human
Colo320 = assay type: cell-based
SNU-C1 = assay type: cell-based
[2] = tested on: HCT116 cells treated with a GSK3β inhibitor; assay type: cell-based; conditions: read-out: GSK3b inh pretreated_Viability ATP HCT116
DLD-1 = assay type: cell-based
RKO = assay type: cell-based
HCT116 = assay type: cell-based; conditions: read-out: Basal_Viability ATP HCT116
INS-1E cells = assay type: cell-based, rat
[3] = tested on: endothelial tube formation in co-cultures of ECFCs and ADSCs treated with VEGF; assay type: cell-based, human; conditions: read-out: Anti-Angiogenesis
[4] = Homo sapiens, IC50 / EC50, NCI-H716, read-out: GLP 1 Secretion
[5] = Homo sapiens, COLO 320; read-out: Basal_Viability ATP Colo 320
[6] = Homo sapiens, HCT-116, GSK3b inhibitor pretreated
[7] = Homo sapiens, RKO; read-out: Basal_Viability ATP RKO
[8] = Rattus norvegicus, IC50 / EC50, INS-1E, read-out: Insulin Secretion
[9] = Homo sapiens, SW480, basal, SW480
[10] = Homo sapiens, HeLa, S2 Table; HeLa; 20 = no response at highest concentration; read-out: CellCycle G2/M
[11] = basal, read-out: Basal_Viability ATP HT-29
[12] = Homo sapiens, NCI-H716, read-out: GLP 1 Secretion
[13] = Homo sapiens, SNU-C1, basal, SNU-C1, read-out: Basal_Viability ATP SNU-C1
[14] = Homo sapiens, DLD-1, basal, DLD-1, read-out: Basal_Viability ATP DLD-1
[15] = Homo sapiens; basal; RKO; read-out: Basal_Viability ATP RKO
[16] = Rattus norvegicus, INS-1E, read-out: Insulin Secretion
[17] = Homo sapiens, COLO 320, read-out: Basal_Viability ATP Colo 320

## CC[C@H]1CN2CCc3cc(OC)c(OC)cc3[C@@H]2C[C@@H]1C[C@H]1NCCc2cc(OC)c(OC)cc21 [emetine]
SW480; Homo sapiens, SW480, basal
  IC50: 1 nM
[1]; Mus musculus, C2C12, IC50 / EC50, C2C12 beta-catenin translocation, read-out: Wnt Pathway
  EC50: > 10000 nM
HeLa cells; Homo sapiens, HeLa, IC50 / EC50; HeLa; read-out: CellCycle G2/M
  EC50: > 10000 nM
HT-29; read-out: Basal_Viability ATP HT-29
  IC50: 16.3 nM
NCI-H716 cells; [4]
  EC50: > 10000 nM
Colo320; [5]
  IC50: 22.1 nM
SNU-C1; Homo sapiens, SNU-C1, basal, read-out: Basal_Viability ATP SNU-C1
  IC50: 2.28 nM
[2]; [6]
  IC50: 1 nM
DLD-1; Homo sapiens, DLD-1, basal, read-out: Basal_Viability ATP DLD-1
  IC50: 11.6 nM
RKO; [7]
  IC50: 8.31 nM
HCT116; Homo sapiens, HCT-116, basal
  IC50: 61.5 nM
INS-1E cells; [8]
  EC50: > 10000 nM

## COc1cccc2c1C(=O)c1c(O)c3c(c(O)c1C2=O)C[C@@](O)(C(=O)CO)C[C@@H]3O[C@H]1C[C@H](N2CCO[C@H](OC)C2)[C@H](O)[C@H](C)O1 [nemorubicin]
SW480; Homo sapiens, SW480
  IC50: 1 nM
[1]; Mus musculus, IC50 / EC50, C2C12 beta-catenin translocation, read-out: Wnt Pathway
  EC50: 13.5 nM
HeLa cells; Homo sapiens; IC50 / EC50; HeLa; read-out: CellCycle G2/M
  EC50: > 10000 nM
NCI-H716 cells; [4]
  EC50: > 10000 nM
Colo320; [5]
  IC50: 1 nM
[2]; [6]
  IC50: 1 nM
DLD-1; Homo sapiens, DLD-1, read-out: Basal_Viability ATP DLD-1
  IC50: 1 nM
RKO; [7]
  IC50: 1 nM
[3]; Homo sapiens, IC50 / EC50, endothelial tube area, ADSC/ECFC co-culture
  IC50: 3 nM
INS-1E cells; [8]
  EC50: > 10000 nM

## O=c1[nH]cc(F)c(=O)[nH]1 [Fluorouracil]
SW480; [9]
  IC50: > 20000 nM
[1]; Mus musculus, C2C12, S2 Table, module primary assay, 20 / 20.1 codes per legend, read-out: Wnt Pathway
  EC50: > 10000 nM
HeLa cells; [10]
  EC50: > 10000 nM
HT-29; [11]
  IC50: > 20000 nM
NCI-H716 cells; [12]
  EC50: > 10000 nM
Colo320; Homo sapiens; basal; Colo 320; read-out: Basal_Viability ATP Colo 320
  IC50: > 20000 nM
SNU-C1; [13]
  IC50: > 20000 nM
DLD-1; [14]
  IC50: > 20000 nM
RKO; [15]
  IC50: > 20000 nM
[3]; Homo sapiens
  IC50: > 10000 nM
INS-1E cells; [16]
  EC50: > 10000 nM

## N=C(N)NN=C(/C=C/c1ccc([N+](=O)[O-])o1)/C=C/c1ccc([N+](=O)[O-])o1 [Nitrovin]
SW480; basal, SW480
  IC50: 7.6 nM
[1]; read-out: Wnt Pathway
  EC50: 372 nM
HeLa cells; S2 Table; HeLa; 20 = no response at highest concentration; read-out: CellCycle G2/M
  EC50: > 10000 nM
NCI-H716 cells; S2 Table, module primary assay, 20 / 20.1 codes per legend, read-out: GLP 1 Secretion
  EC50: > 10000 nM
SNU-C1; basal, SNU-C1, read-out: Basal_Viability ATP SNU-C1
  IC50: 1350 nM
[2]; HCT116 pretreated with GSK3b inhibitor
  IC50: 23.7 nM
DLD-1; basal, DLD-1, read-out: Basal_Viability ATP DLD-1
  IC50: > 20000 nM
RKO; basal; RKO; read-out: Basal_Viability ATP RKO
  IC50: 12.8 nM
HCT116; basal, HCT116
  IC50: 136 nM
[3]; S2 Table, module primary assay, 20 = no response at highest concentration, 20.1 = inactive in single concentration testing
  IC50: > 10000 nM
INS-1E cells; S2 Table, module primary assay, 20 / 20.1 codes per legend, read-out: Insulin Secretion
  EC50: > 10000 nM

## CC[C@@]1(O)C(=O)OCc2c1cc1n(c2=O)Cc2cc3c(CN(C)C)c(O)ccc3nc2-1 [topotecan]
SW480; [9]
  IC50: 233 nM
[1]; Mus musculus, C2C12, read-out: Wnt Pathway
  EC50: 17.9 nM
HeLa cells; [10]
  EC50: > 10000 nM
HT-29; [11]
  IC50: 24.6 nM
NCI-H716 cells; [12]
  EC50: > 10000 nM
Colo320; [17]
  IC50: 9420 nM
SNU-C1; [13]
  IC50: 301 nM
[2]; Homo sapiens, HCT-116, HCT116 pretreated with GSK3b inhibitor
  IC50: 1.44 nM
DLD-1; [14]
  IC50: 177 nM
RKO; [15]
  IC50: 34.2 nM
HCT116; Homo sapiens, HCT-116, basal, HCT116
  IC50: 34.1 nM
INS-1E cells; [16]
  EC50: > 10000 nM

## CC(C)n1c(/C=C/C(O)CC(O)CC(=O)O)c(-c2ccc(F)cc2)c2ccccc21 (stereo not shown) [fluvastatin, reference compound]
[1]; Mus musculus, C2C12, Table 2, C2C12, […], 20 / 20.1 coded, read-out: Wnt pot. EC50
  EC50: > 10000 nM
HeLa cells; [10]
  EC50: > 10000 nM
HT-29; Table 2, 72 h, Cell TiterGlo, non-adherent, 20 coded, read-out: HT-29 viab. IC50
  IC50: > 20000 nM
NCI-H716 cells; Homo sapiens, NCI-H716, read-out: GLP1 sec. EC50
  EC50: > 10000 nM
Colo320; [17]
  IC50: 13000 nM
Colo320; Homo sapiens, COLO 320; Table 2; 72 h, Cell TiterGlo, non-adherent; 20 coded; read-out: Colo320 viab. IC50
  IC50: 13000 nM
SNU-C1; Homo sapiens, SNU-C1, 72 h, Table 2, 72 h, Cell TiterGlo, non-adherent, 20 coded, read-out: SNU-C1 viab. IC50
  IC50: > 20000 nM
DLD-1; Homo sapiens, DLD-1, 72 h, Table 2, 72 h, Cell TiterGlo, non-adherent, 20 coded, read-out: DLD-1 viab. IC50
  IC50: > 20000 nM
RKO; Homo sapiens, RKO, read-out: Basal_Viability ATP RKO
  IC50: 19200 nM
RKO; Homo sapiens, RKO; Table 2; 72 h, Cell TiterGlo, non-adherent; 20 coded; read-out: RKO viab. IC50
  IC50: 19200 nM
INS-1E cells; Rattus norvegicus, INS-1E, read-out: Ins. sec. EC50
  EC50: > 10000 nM
